# Source: PMC3972818 (Nature medicine, 2014)
# How the values were obtained:
# [1] = system: COX1 synthesis in mitochondria isolated from HEK293 cells; assay: Mitochondrial in organello translation; assay type: biochemical, human; settings: even up to 1 mM
# in vitro = in vitro ADME; settings: rat, microsomes
# [2] = mean (% CV); cited from earlier work
# [3] = rat IV; mean (% CV); cited from earlier work
compound,measurement,setting,value
"CN[C@@H]1[C@H](O)[C@H](NC)[C@H]2O[C@@]3(O)C(=O)C[C@@H](C)O[C@H]3O[C@@H]2[C@H]1O [Spectinomycin, spectinomycin]",Inhibition of in organello mitochondrial translation,[1],did not inhibit
same,remaining at 1.5 h,in vitro,80.4%
same,Protein serum binding (Rat) % bound,[2],12.7 (7.5)^2%
same,% excreted unchanged in urine,[3],55.3 (27.0)^2%
same,CL,[3],0.60 (11.5)^2 L/h/kg
same,Vd,[3],0.76 (45.2)^2 L/kg
same,t½,[3],0.75 (49.3)^2 h
